Each block holds one compound with its values, some of them ahead of it. No end group written: not given here.
Experiments:
[1] = system: CARP-1, phospho-JNK1/2, phospho-H2AX, PARP; test: Western blot of CARP-1, phospho-JNK1/2, γH2AX, cleaved PARP in MDA-MB-468; assay type: cell-based, human
MDA-MB-231 HBC cells = conditions: MDA-MB-231, compared with untreated counterparts; ref [34]; cited from earlier work
DBC1 (CCAR2) = test: Co-immunoprecipitation with Dbc1 (CCAR2); assay type: cell-based; conditions: Dbc1-expressing PT67 (NIH3T3 murine fibroblast subline) cells, anti-Flag IP
Description: (Clontech) were first transfected with recombinant PLNCX2/Flag-Dbc1 plasmid (10), and stable, neomycin-resistant sublines were generated and characterized for Dbc1 expression essentially as described by us before (5; [35]). The Dbc1 expressing PT67 cells were then separately transfected with pcDNA3 vector, pcDNA3-Gst, pcDNA3-Gst-H2AX, pcDNA3-EGFP, or pcDNA3-EGFP-H2AX (1–35) plasmids. Approximately 1mg of cell lysate from each of transfected, Dbc1-expressing, PT67 cells was subjected to immunoprecipitation using anti-Flag tag M2 antibodies (F1804, Sigma). The immunoprecipitates were then analyzed by WB by probing the membrane with anti-Gst (top autoradiograph), anti-p53 D2H90 rodent specific rabbit mAb (32532S; Cell Signaling; 2nd autoradiograph from top), or anti-Fag tag (for Dbc1) antibodies (3rd autoradiograph from top). The membranes containing […] of respective cell lysates (marked as whole cell lysates) were subsequently probed with anti-Gst tag (Bottom left autoradiograph) or anti-EGFP antibodies (Bottom right autoradiograph) to ascertain expression of transfected, Gst, Gst-tagged H2AX proteins, EGFP, and EGFP-H2AX (1–35) proteins. The presence of respective proteins is indicated by an arrowhead on the left side of each blot. Approximate location of various molecular weight markers is indicated on the right side of each blot. kDa, kilodalton.
© 2019 by the authors. […]

Gst-H2AX (1–35) = test: Gst-pulldown with Gst-H2AX (1–35); assay type: binding, human; conditions: E. coli-expressed, 4 °C, 2 h, WB anti-HA, Figure 5B
Description: (§1) Logarithmically growing cells were either untreated or treated with different agents for various time periods. The cells were lysed to prepare protein extracts. IP was carried out by incubating approximately 1 mg of the protein lysate with appropriate antibodies. The immunoprecipitates were then analyzed by SDS-PAGE, followed by WB with respective, interacting protein. For Gst-pulldown, Gst-H2AX or various His-TAT-HA-tagged CARP-1 peptides were generated in Escherichia coli (E. coli) BL21 cells essentially as described by us previously. Briefly, the competent E. coli BL-21 (DE3) pLysS cells were transformed separately with various recombinant pGEX-4T-1 or pTAT-HA constructs. The transformed cells were then subjected to selection by combined presence of ampicillin and chloramphenicol; various isolates for each transformation were obtained and bacterial lysates were characterized for expression of fusion peptides. Cells from each isolate were grown in 4 mL of LB medium containing ampicillin only until the optical density (OD)600 reached 0.4–0.8. Expression of fusion peptides was induced over 2–4 h incubation periods after Isopropyl β-D-1-thiogalactopyranoside (IPTG) addition. The cells were harvested, and pellets were stored at −80 °C overnight. […]

Gst-H2AX = test: Gst-pulldown with Gst-H2AX; assay type: binding, human; conditions: E. coli-expressed, 4 °C, 2 h, WB anti-HA, Figure 5A
Description: as §1

H2AX (1–35) peptide = target: T1, H2AX (1–35) peptide (Homo sapiens, UniProt P16104); test: Surface plasmon resonance, CARP-1 peptide with H2AX (1–35) peptide; assay type: binding; conditions: SPR, PBST pH 7.4, 25 °C, 1:1 global fit
T1 construct: CARP-1 (636–650) and H2AX (1–35) peptides, each with ≥90% purity, were commercially synthesized; purchased
Description: Affinity purification of the Gst-tagged or His-tagged fusion proteins was carried out essentially following procedure previously described by us. Briefly, the bacteria expressing respective fusion protein were cultured in 500 mL of LB medium containing ampicillin until the OD600 reached 0.4–0.6. Protein expression was induced by addition of IPTG over an additional 2–4-h incubation at 37 °C. Cells were harvested, and pellets were stored overnight at −80 °C, and lysed in 4–5 mL of BPER lysis buffer containing DNAse I as detailed above. […] Fractions containing eluted fusion protein were pooled, and dialyzed overnight at 4 °C in 1–2 L of 1× Tris-buffered saline (BioRad, Hercules, CA, USA) with multiple buffer changes. Following measurement of protein concentration, the purified protein was aliquoted and snap-frozen in liquid N2 for storage. […]
Next, kinetics of CARP-1 binding with H2AX were determined by surface plasmon resonance (SPR) technology (Profacgen, Shirley, NY, USA). […] The signal changes after binding and washing (in AU) were recorded as the assay value. Selected protein-grafted regions in the SPR images were analyzed, and the average reflectivity variations of the chosen areas were plotted as a function of time. Real-time binding signals were recorded and analyzed using a data analysis module (DAM) obtained from Plexera Bioscience (Seattle, WA, USA). […]

Compound: Cc1cc(NC(=O)c2cccc(NC(=O)/C=C/CN(C)C)c2)ccc1Nc1nccc(-c2cccnc2)n1 [JNK-IN-8]
JNK activation ([1]; MDA-MB-468, 5 μM JNK-IN-8, WB): total loss of JNK activation
levels of CARP-1 ([1]; MDA-MB-468, combination of JNK-IN-8 (5 μM) with Adriamycin, WB): elevated levels of CARP-1
γH2AX ([1]; MDA-MB-468, combined presence of JNK-IN-8 (5 μM) and Adriamycin, WB): reduced levels of γH2AX
levels of CARP-1 ([1]; MDA-MB-468, single agent (JNK-IN-8 at 5 μM), WB): elevated levels of CARP-1
viabilities (MDA-MB-231 HBC cells): significantly reduced viabilities

Compound: H2AX (1–35): commercially synthesized H2AX (1–35) peptide; epitope of H2AX (tested as EGFP-tagged protein) (MSGRGKTGGKARAKAKSRSSRAGLQFPVGRVHRLL; UniProt P16104 1-35, looked up, fragment)
interaction with DBC1 (DBC1 (CCAR2)): does not interact

binding with Gst-H2AX protein (Gst-H2AX): bound with Gst-H2AX protein
Compound: His-TAT-HA-CARP-1 (631–660): E. coli-expressed His-TAT-HA-tagged CARP-1 peptide (WSKLDPKTMKVNDLRKELESRALSSKGLKS; also: His, TAT and HA tags kept, end not given here)
binding with Gst-H2AX (1–35) (Gst-H2AX (1–35)): bound with Gst-H2AX and Gst-H2AX (1–35) proteins

kon (H2AX (1–35) peptide; read-out: Ka (association rate constant)): 2320 M⁻¹ s⁻¹
koff (H2AX (1–35) peptide; read-out: Kd (dissociation rate constant)): 0.000292 s⁻¹
Compound: WSKLDPKTMKVNDLRKELESRALSSKGLKS [CARP-1 (631–660)]
